According to patent publication US20210246122A1, “Triazine Compounds and Uses Thereof” (Aduro Biotech, Inc., priority 2018, published 2021):
pIC50: −log10 of the molar value.

Tests used:
cGAS/STING pathway = assay: THP1 cell-based cGAS/STING pathway activity assay (luciferase reporter linked to IRF-3 activation); details: Homo sapiens, THP-1; THP1 cells, IRF-3 linked luciferase reporter
Description: A cellular assay can be used to assess the compounds of the invention for their ability to inhibit the cGAS/STING pathway. Cells that express a luciferase-based reporter that is linked to IRF-3 activation are used to determine response as a function of compound concentration. Such an assay is described in Vincent et al., Nature Communications 2017, 8(1):750, doi: 10.1038/s41467-017-00833-9. Compounds of the invention were assessed using similar assay methods in a THP1 cell assay to generate IC50 values as provided in the following Table 8. In this table, activity level “A” indicates an IC50 value less than 20 μM, “B” indicates an IC50 value between 20 and 100 μM, and “C” indicates an IC50 value above the upper limit of the assay (100 μM), or where an IC50 value could not be generated from the data.

[1] = target: T1, Human cGAS amino acids 155-522 (Homo sapiens, UniProt Q8N884); assay: cGAS activity assay (DNA-activated cGAS, remaining ATP measured by Kinase-Glo Max luciferase assay); type: biochemical; details: 300 nM purified cGAS, 1 μM dsDNA, 250 μM ATP, 100 μM GTP, 37° C. for 1.25 hours
T1 construct: hexahistidine tag (N, cleaved yes); made in house; host or cells: E. coli BL21 DE3 Rosetta 2
T1 sequence (Q8N884 157-522): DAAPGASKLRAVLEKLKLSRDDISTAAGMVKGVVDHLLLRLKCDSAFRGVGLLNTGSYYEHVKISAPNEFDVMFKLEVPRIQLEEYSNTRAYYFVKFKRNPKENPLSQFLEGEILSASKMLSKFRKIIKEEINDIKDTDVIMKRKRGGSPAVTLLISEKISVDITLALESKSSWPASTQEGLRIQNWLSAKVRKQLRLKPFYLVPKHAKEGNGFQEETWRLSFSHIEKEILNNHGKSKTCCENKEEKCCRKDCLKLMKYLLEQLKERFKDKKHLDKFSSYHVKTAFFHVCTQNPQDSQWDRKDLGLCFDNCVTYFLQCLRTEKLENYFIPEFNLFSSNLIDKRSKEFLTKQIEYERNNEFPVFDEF
Procedure, shortened: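 Recombinant human cGAS 155-522 (300 nM) activated by 1 μM annealed dsDNA, run at 37° C for 1.25 h in Tris pH 9 buffer with 250 μM ATP and 100 μM GTP, 5% final DMSO. Compounds from 1 μM in 3- or 4-fold dilutions; remaining ATP read by luciferase luminescence, normalized to no-compound wells.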

SMILES | pIC50 (cGAS/STING pathway) | pIC50 [1]
COCCNC(=O)[C@H](Cc1ccc(C#N)cc1)Nc1nc(NCc2nc3cc(F)ccc3[nH]2)nc(Nc2cccc(CN3CCN(C(=O)c4nccnc4O)CC3)c2)n1 [TA1018, (S)-3-(4-cyanophenyl)-2-((4-(((5-fluoro-1H-benzo[d]imidazol-2-yl)methyl)amino)-6-((3-((4-(3-hydroxypyrazine-2-carbonyl)piperazin-1-yl)methyl)phenyl)amino)-1,3,5-triazin-2-yl)amino)-N-(2-methoxyethyl)propanamide] | < 4.00 | > 4.70
COC(=O)[C@H](Cc1ccc(C#N)cc1)Nc1nc(NCc2nc3cc(Cl)ccc3[nH]2)nc(Nc2cccc(CN3CCN(C(=O)c4c[nH]nn4)CC3)c2)n1 [TA1061, methyl (S)-2-((4-((3-((4-(1H-1,2,3-triazole-4-carbonyl)piperazin-1-yl)methyl)phenyl)amino)-6-(((5-chloro-1H-benzo[d]imidazol-2-yl)methyl)amino)-1,3,5-triazin-2-yl)amino)-3-(4-cyanophenyl)propanoate] | < 4.00 | > 4.70
CN(C)C(=O)[C@H](Cc1ccc(C#N)cc1)Nc1nc(NCc2nc3cc(F)ccc3[nH]2)nc(Nc2cccc(CN3CCN(C(=O)c4nccnc4O)CC3)c2)n1 [TA1021, (S)-3-(4-cyanophenyl)-2-((4-(((5-fluoro-1H-benzo[d]imidazol-2-yl)methyl)amino)-6-((3-((4-(3-hydroxypyrazine-2-carbonyl)piperazin-1-yl)methyl)phenyl)amino)-1,3,5-triazin-2-yl)amino)-N,N-dimethylpropanamide] | < 4.00 | > 4.70
COC(=O)[C@H](Cc1ccccc1)Nc1nc(NCc2nc3cc(F)ccc3[nH]2)nc(Nc2cccc(CN3CCN(C(=O)c4nccnc4O)CC3)c2)n1 [TA1065, methyl (4-(((5-fluoro-1H-benzo[d]imidazol-2-yl)methyl)amino)-6-((3-((4-(3-hydroxypyrazine-2-carbonyl)piperazin-1-yl)methyl)phenyl)amino)-1,3,5-triazin-2-yl)-L-phenylalaninate] | 4.00 to 4.70 | > 4.70
